The values below come from patent US4740233A, “Substituted 1,2,4-triazolo[1,5-a]-pyrimidine-2-sulfonamides and compositions and methods of controlling undesired vegetation and suppressing the nitrification of ammonium nitrogen in soil” (The Dow Chemical Company, priority 1986, dated 1988).

What all share (assay): Preemergent control of plant species
One test has as its system sugar beet. In kind it is in vivo, Beta saccharifera. The following applies: Beta vulgaris, pre-emergence, 336 h; 0.25 lb/acre; read-out: percent preemergent control. The method, then: (§1) The seeds of various species of plants were planted in beds of good agricultural soil in a greenhouse. A number of compositions of the present invention, generally in the nature of an aqueous emulsion, were applied at rates listed in the table so as to deposit a predetermined amount of active ingredients uniformly throughout the surface of the bed. Another seed bed was treated only with water to serve as a control. After treatment the seed beds were maintained for two weeks under greenhouse conditions conducive for good plant growth and watered as necessary. Control refers to the reduction in growth compared to the observed results of the same untreated species.

The subject of the next test is corn. In kind it is in vivo, Zea mays. The conditions noted are these: Zea mays, pre-emergence, 336 h; 0.25 lb/acre; read-out: percent preemergent control. The method, then: as §1
The subject of a further test is sorghum. In kind it is in vivo, Sorghum vulgare. The conditions noted are these: Sorghum, pre-emergence, 336 h; 0.25 lb/acre; read-out: percent preemergent control. Here is the method: as §1
In the next test the test system is wheat. It counts as in vivo, Triticum aestivum. The conditions noted are these: Triticum aestivum, pre-emergence, 336 h; 0.25 lb/acre; read-out: percent preemergent control. Here is the method: as §1
Another test deals with velvetleaf. It counts as in vivo, Abutilon theophrasti. The following applies: Abutilon theophrasti, pre-emergence, 336 h; 0.25 lb/acre; read-out: percent preemergent control. The method, then:
as §1

The next test has as its system jimsonweed. In kind it is in vivo, Datura stramonium. The following applies: Datura stramonium, pre-emergence, 336 h; 0.25 lb/acre; read-out: percent preemergent control. Here is the method:
as §1

The test system of a further test is yellow foxtail. In kind it is in vivo, Setaria lutescens. The conditions noted are these: Setaria, pre-emergence, 336 h; 0.25 lb/acre; read-out: percent preemergent control. Here is the method: as §1
The test system of another test is rape. In kind it is in vivo, Brassica napus. The following applies: Brassica napus, pre-emergence, 336 h; 0.25 lb/acre; read-out: percent preemergent control. Here is the method:
as §1

The subject of the next test is annual morning glory. It counts as in vivo, Ipomoea spp. The conditions noted are these: Ipomoea, pre-emergence, 336 h; 0.25 lb/acre; read-out: percent preemergent control. The method, then: as §1
For another test, the system named is barnyardgrass. It counts as in vivo, Echinochloa crusgalli. The conditions noted are these: Echinochloa crus-galli, pre-emergence, 336 h; 0.25 lb/acre; read-out: percent preemergent control. The method, then: as §1
The next test relates to johnson grass. In kind it is in vivo, Sorghum halepense. The conditions noted are these: Sorghum halepense, pre-emergence, 336 h; 0.25 lb/acre; read-out: percent preemergent control. Here is the method: as §1
The subject of another test is cotton. In kind it is in vivo, Gossypium spp. The conditions noted are these: Gossypium hirsutum, pre-emergence, 336 h; 0.25 lb/acre; read-out: percent preemergent control. Here is the method: as §1
In the next test the test system is yellow nutsedge. In kind it is in vivo, Cyperus esculentus. The following applies: Cyperus, pre-emergence, 336 h; 0.25 lb/acre; read-out: percent preemergent control. The method, then:
as §1

A further test concerns rice. In kind it is in vivo, Oryza sativa. The following applies: Oryza sativa, pre-emergence, 336 h; 0.25 lb/acre; read-out: percent preemergent control. Here is the method: as §1
Another test has as its system soybean. It counts as in vivo, Glycine max. The following applies: Glycine max, pre-emergence, 336 h; 0.25 lb/acre; read-out: percent preemergent control. Here is the method:
as §1

As to `COc1cccc(F)c1NS(=O)(=O)c1nc2nc(C)ccn2n1` [Compound 171], the plant injury at 280.212 g/ha in the test with sugar beet was 100%; in the test on corn, 40%; in the test with sorghum it was 100%; with wheat, 50%; with rape it was 100%; in the test with cotton, 70%. Moreover, the results for the plant injury at 280.212 g/ha in the test on rice and in the test with soybean were 90% and 20%, respectively. Besides, the pest or weed control at 280.212 g/ha with velvetleaf was found to be 90%; in the test with jimsonweed it was 20%; in the test with yellow foxtail it was 100%; in the test with annual morning glory it was 50%; in the test on barnyardgrass, 100%; in the test on johnson grass it was 100%. Besides, the pest or weed control at 280.212 g/ha in the test on yellow nutsedge is 80%.
`O=S(=O)(Nc1c(F)cccc1F)c1nc2ncccn2n1` [Compound 138]: the plant injury at 280.212 g/ha in the test with sugar beet worked out at 90%; in the test with corn it was 30%; in the test on sorghum, 50%; in the test on wheat, 10%; with rape, 100%; in the test on cotton, 100%. Moreover, the plant injury at 280.212 g/ha with rice and with soybean was 50% each time. For the same compound, the pest or weed control at 280.212 g/ha with velvetleaf worked out at 90%; in the test with jimsonweed, 20%; in the test on yellow foxtail, 90%; with annual morning glory it was 20%; in the test on barnyardgrass, 0%; in the test on johnson grass, 90%. Further, in the test on yellow nutsedge, the pest or weed control at 280.212 g/ha is 80%.
In the case of `Cc1ccc(Cl)c(NS(=O)(=O)c2nc3ncccn3n2)c1Cl` [Compound 139], the plant injury at 280.212 g/ha was 100% in the test on sugar beet; 70% in the test on corn; 100% with sorghum; 80% with wheat; 100% with rape; 100% in the test with cotton. Further, the plant injury at 280.212 g/ha came out at 90% in the test with rice and 50% with soybean. Further, the pest or weed control at 280.212 g/ha in the test with velvetleaf is 100%; in the test with jimsonweed, 100%; with yellow foxtail, 100%; with annual morning glory, 90%; in the test with barnyardgrass, 80%; in the test with johnson grass, 100%. Moreover, in the test with yellow nutsedge, the pest or weed control at 280.212 g/ha amounted to 100%.
Turning to `COc1nc2nc(S(=O)(=O)Nc3c(C)cccc3Cl)nn2cc1C` [Compound 220], the plant injury at 280.212 g/ha in the test on sugar beet, in the test with corn, in the test on sorghum, with wheat, in the test on rape and with cotton was 100% in each case. Further, the plant injury at 280.212 g/ha with rice came to 50%; with soybean, 90%. Further, the pest or weed control at 280.212 g/ha in the test with velvetleaf turned out to be 100%; in the test on jimsonweed it was 100%; in the test with yellow foxtail it was 100%; in the test on annual morning glory, 70%; in the test on barnyardgrass it was 90%; in the test with johnson grass, 100%. Further, in the test with yellow nutsedge, the pest or weed control at 280.212 g/ha came to 100%.
With `COc1nc2nc(S(=O)(=O)Nc3c(Cl)ccc(C)c3Cl)nn2cc1C` [Compound 218], the plant injury at 280.212 g/ha amounted to 100% in the test with sugar beet; 0% in the test on corn; 95% in the test on sorghum; 0% in the test on wheat; 100% in the test on rape; 100% with cotton. The figures for the plant injury at 280.212 g/ha in the test on rice and with soybean were 0% and 100%, respectively. Also, the pest or weed control at 280.212 g/ha amounted to 100% in the test on velvetleaf; 100% with jimsonweed; 50% in the test on yellow foxtail; 100% with annual morning glory; 0% in the test with barnyardgrass; 50% in the test on johnson grass. Moreover, the pest or weed control at 280.212 g/ha in the test with yellow nutsedge turned out to be 50%.
Turning to `CCCCCCCCCC(=O)N(c1c(F)cccc1F)S(=O)(=O)c1nc2nc(C)ccn2n1` [Compound 287], the plant injury at 280.212 g/ha was 100% in the test with sugar beet; 60% in the test on corn; 100% in the test with sorghum; 70% with wheat; 100% in the test with rape; 100% in the test with cotton. Moreover, the plant injury at 280.212 g/ha was determined as 100% with rice and 30% in the test on soybean. The pest or weed control at 280.212 g/ha with velvetleaf, in the test on jimsonweed, with yellow foxtail, in the test on annual morning glory, in the test with barnyardgrass and in the test with johnson grass was 100% in each case. For the same compound, the pest or weed control at 280.212 g/ha with yellow nutsedge came out at 100%.
Turning to `Cc1ccn2nc(S(=O)(=O)N(C(=O)C(C)(C)C)c3c(F)cccc3F)nc2n1` [Compound 280], the plant injury at 280.212 g/ha turned out to be 100% with sugar beet; 50% with corn; 100% in the test with sorghum; 60% with wheat; 100% in the test with rape; 80% in the test with cotton. Moreover, the plant injury at 280.212 g/ha in the test on rice turned out to be 50%; in the test with soybean, 10%. Also, the pest or weed control at 280.212 g/ha stood at 100% in the test on velvetleaf; 100% with jimsonweed; 100% in the test with yellow foxtail; 90% in the test with annual morning glory; 100% with barnyardgrass; 90% in the test with johnson grass. In addition, the pest or weed control at 280.212 g/ha in the test on yellow nutsedge was found to be 100%.
Consider `COc1nc2nc(S(=O)(=O)Nc3c([N+](=O)[O-])ccc(C)c3C)nn2cc1C` [Compound 222], for which the plant injury at 280.212 g/ha in the test with sugar beet amounted to 100%; with corn it was 40%; in the test with sorghum, 50%; in the test with wheat, 0%; in the test with rape, 100%; in the test on cotton, 100%. Moreover, the plant injury at 280.212 g/ha came out at 90% in the test with rice and 100% in the test with soybean. Moreover, the pest or weed control at 280.212 g/ha in the test on velvetleaf was determined as 100%; with jimsonweed, 100%; in the test with yellow foxtail, 30%; with annual morning glory, 90%; with barnyardgrass, 0%; in the test with johnson grass, 100%. In addition, the pest or weed control at 280.212 g/ha with yellow nutsedge stood at 50%.
